Experimental data reported in patent publication US20250017888A1, “COMPOUNDS FOR TREATING DISEASES ASSOCIATED WITH HYALURONAN OVERPRODUCTION” (THE ROYAL VETERINARY COLLEGE, priority 2021, published 2025).
“Also recorded” adds a separate entry of the source.

Columns and labels:
Type in all cases: in vivo, mouse
Str/ort mice [1] = experiment: Histology and grading of articular cartilage lesions in Str/ort mice
Method: At 10-13 weeks of age, 21 male Str/ort mice (n=7/group) were assigned randomly to vehicle, hylin-betaine and xantho-betaine groups and were treated intraperitoneally 18 weeks with either vehicle (5% DMSO in 95% peanut oil), 50 mg/kg compound of Example 1 (“hylin-betaine”) in 5% DMSO and 95% peanut oil or 50 mg/kg compound of Example 2 (“xantho-betaine”) in 5% DMSO and 95% peanut oil. Dissected right knees were fixed in neutral buffered formalin, decalcified (Immunocal, Quartett, Berlin), wax-embedded and 6 μm coronal sections cut. Multiple sections (five/slide) from 120 μm intervals across the whole joint were stained with Tollidine blue (0.1% in 0.1 M acetate buffer, pH 5.6) and AC lesion severity graded. Sections from right vehicle, hylin-betaine and xantho-betaine treated Str/ort joints were stained with Safranin O. Sections were dewaxed, and AC lesion severity was scored in Str/ort mice by the methods of Chambers et al., (Chambers et al Expression of collagen and aggrecan genes in normal and osteoarthritic murine knee joints. Osteoarthritis and cartilage/OARS, Osteoarthritis Research Society. 2002; 10(1):51-61) consistent with an internationally-recognized system. Briefly, grade 0: normal; grade 1: rough surface or superficial zone lesions; grade 2: lesion down to the intermediate zone; grade 3: lesions down to tidemark or loss of AC; grades 4 and 5: AC loss across between 20% and 50% or 50-80% of condylar surface; grade 6: loss with subchondral bone exposure. Multiple slides (˜10), each containing five 6 μm sections sampled at 120 μm intervals spanning each entire joint were graded. Grading in each joint compartment (lateral/medial, tibia/femur) allowed for a maximum (most severe) grade to be assigned in each section, and used to produce an overall ‘average’ maximum grade in each group of mice, for the entire joint and for each compartment. In addition, a mean score was produced for each joint and for each compartment and these similarly used to produce an overall ‘average’ mean grade in each group of mice. Mean grades provide a measure of the ‘extent’ of AC lesion (representing relative volume) in each joint/compartment.

Str/ort mice [2] = experiment: Micro-CT of tibial trabecular and cortical bone in Str/ort mice
Method: At 10-13 weeks of age, 21 male Str/ort mice (n=7/group) were assigned randomly to vehicle, hylin-betaine and xantho-betaine groups and were treated intraperitoneally 18 weeks with either vehicle (5% DMSO in 95% peanut oil), 50 mg/kg compound of Example 1 (“hylin-betaine”) in 5% DMSO and 95% peanut oil or 50 mg/kg compound of Example 2 (“xantho-betaine”) in 5% DMSO and 95% peanut oil. Micro-CT scanning and analysis were performed as described previously. Briefly, tibiae from vehicle, hylin-betaine and xantho-betaine treated groups were scanned using the Skyscan 1172 (Skyscan, Kontich, Belgium), with x-ray tube operated at 50 kV and 200 Micro-A, 1600 ms exposure time with a 0.5 mm aluminium filter and a voxel size of micro-m 5. The scanning time for each sample was approximately 2 hours. The slices were then reconstructed using NRecon 1.6.9.4 (Skyscan, Kontich, Belgium). 2D/3D analyses were performed using CTAn 1.15.4.0+ version software (Skyscan, Kontich, Belgium). Additionally, 3D visualization and production of colour-coded images of trabecular, cortical and skull bones were conducted using Avizo 9.0.0 software (FEI, Oregon USA). • a. Trabecular analysis: prior to analysis, Micro-CT images were re-oriented in DataViewer 1.5.0 (Skyscan, Kontich, Belgium), such that the cross-section within the transverse plane was perpendicular to the long axis of the bone. Tibial length was measured in CTAn 1.15.4.0+ software using a straight line measuring tool and the appearance of the trabecular ‘bridge’ connecting the two primary spongiosa bone ‘islands’ was set as reference point for analysis of the metaphyseal trabecular bone adjacent to the epiphyseal growth plate. 5% of the total bone length from this point (towards the diaphysis) was utilised for trabecular analysis of the proximal tibia. The trabecular region of interest was drawn freehand using the selection tool of CTAn, a few voxels away from the endocortical surfaces in order to avoid inclusion of remnants of primary spongiosa associated with cortical bone. The selected trabecular regions of interests were analysed using CTAn BatMan software (Skyscan, Kontich, Belgium) and morphometric parameters were recorded. • b. Whole bone cortical analysis: Whole bone analysis was performed on datasets derived from CT scans using BoneJ (version 1.4.0), an ImageJ plugin. Following segmentation, alignment and removal of fibula from the dataset, a minimum bone threshold was selected using a histogram based method in ImageJ which utilises all pixels in a stack to construct a histogram and was further confirmed using ImageJ “threshold function”. The threshold ranged between 22000-22100 and was applied to all datasets to separate higher density bone from soft tissues and air. This threshold was used in “Slice Geometry” function within BoneJ to calculate bone cross sectional area (CSA), second moment of area around the minor axis (Imin), second moment of area around the major axis (Imax), mean thickness determined by local thickness in two dimensions (Ct.Th), ellipticity and resistance to torsion (J). The most proximal (15%) and the most distal portions (25%) of tibial length were excluded from analysis, as these regions include trabecular bone.

Str/ort mice [3] = experiment: Gait analysis (treadmill, Digigait) in Str/ort mice
Method: (§1) At 10-13 weeks of age, 21 male Str/ort mice (n=7/group) were assigned randomly to vehicle, hylin-betaine and xantho-betaine groups and were treated intraperitoneally 18 weeks with either vehicle (5% DMSO in 95% peanut oil), 50 mg/kg compound of Example 1 (“hylin-betaine”) in 5% DMSO and 95% peanut oil or 50 mg/kg compound of Example 2 (“xantho-betaine”) in 5% DMSO and 95% peanut oil.
Gait was monitored using a treadmill-based video system (DigigaitTM system) in three treatment groups of mice at three time point, week 1, week 9 and week 18 of treatment. The number of mice was 7, 7 and 5 in groups 1, 2 and 3, respectively.
[…] gait descriptors were used for the analyses. Thirty-four descriptors were obtained directly from the software of the system in the 4 limbs (LF: left front; RF: right front; LR: left rear; RR: right rear). All the others (143) were calculated indexes from gait measurements including swing, stance, brake, propel and stride times, stride length, frequency and coefficient of variation, paw area and paw angle and the variability of those two traits, the coefficient of variation of swing duration mid line distance, and minimum and maximum dAdT. The ratios of times were calculated in the 4 limbs: Brake, Propel, and Swing times relative to Stance and Stride times, Stance/Swing and Stance/Stride. In addition, the following additional indexes were considered:
In order to investigate whether there were differences among groups for each descriptor at the three experimental dates, an ANOVA was performed using data corresponding to each descriptor and date. Bonferroni correction was applied to counteract the problem of multiple comparisons.
A t-test analysis was also performed comparing only two groups at a time. In order to assess whether differences between both groups could be due to differences in gait change regarding the initial condition (at 2014/12/23), two sets of analyses were performed for data at 2015/02/18 and 2015/04/14, respectively by using Logistic Regression Analysis. The model included two independent variables: the initial value for each descriptor and the difference between the corresponding value at 2015/02/18 (or 2015/04/14) and the initial value. Bonferroni correction was also applied.

Str/ort mice [4] = experiment: Micro-CT of tibial trabecular and cortical bone in Str/ort mice; conditions: 10-90% of total tibial length, vs vehicle
Str/ort mice [5] = experiment: Health evaluation of treated Str/ort mice; conditions: 50 mg/kg intraperitoneally, 18 weeks, vs vehicle
Method: as §1
To assess the health status after hylin-betaine and xantho-betaine treatment, mice were monitored for their health status. The monitoring criteria were body surface temperature, body weight, gait, coat condition, skin tenting for dehydration, hunching, activity, breathing rate and general body condition. Mice were scored blind for each one of these criteria from 1-5 except for body weight and temperature.

[6] = 50 mg/kg intraperitoneally, 18 weeks, vs vehicle
[7] = 50 mg/kg intraperitoneally, 18 weeks

health status: weight, hunching, gait, activity, vocalisation and respiration scores, coat condition (Str/ort mice [5]): does not alter
Compound: COc1cc(/C=C/C(=O)/C=C/c2ccc(OC(=O)C[N+](C)(C)C)c(OC)c2)ccc1O.[Cl-] [Hylin-betaine, 2-(4-((1E,4E)-5-(4-hydroxy-3-methoxyphenyl)-3-oxopenta-1,4-dien-1-yl)-2-methoxyphenoxy)-N,N,N-trimethyl-2-oxoethanaminium chloride]
effect on articular cartilage lesions / development of OA (overall) (Str/ort mice [1]; [6]): prevents/improves articular cartilage lesions; also recorded: protective effect
Mean OA scores (Str/ort mice [1]; tibial and femoral lateral knee joint compartments, vs vehicle): statistically significantly lower
maximum OA score (Str/ort mice [1]; vs vehicle treated Str/ort mice): trend for lower maximum score
metaphyseal trabecular bone architecture and mass (tibial length, BV/TV, TV, BV, eccentricity, thickness, separation, number) (Str/ort mice [2]; [6]): do not alter
cortical cross-sectional area (CSA) (Str/ort mice [2]; apart from one distal region and a region close to tibio-fibula junction): do not significantly
mean cortical cross-sectional thickness (Str/ort mice [2]; multiple regions from −15-60% tibial length, vs vehicle): significantly enhanced
second moment of area around minor axis (Imin) (Str/ort mice [2]; vs vehicle, one region proximally): does not affect
tibial ellipticity (Str/ort mice [2]; vs vehicle, region ˜40-50% along the tibia): modified by xantho-betaine but not hylin-betaine
second moment of area around major axis (Imax) (Str/ort mice [2]; vs vehicle, ˜35-55% of tibial length): did not affect
mice that refused to run (drop-out) during the gait studies (Str/ort mice [3]; [7]): no mice
percentage of drop-out regarding the total number of runs (Str/ort mice [3]; [7]): 0%
distribution of gait data (runs) by treatment group (Str/ort mice [3]; 2014 Dec. 23): 7
distribution of gait data (runs) by treatment group (Str/ort mice [3]; 2015 Apr. 14): 7
distribution of gait data (runs) by treatment group (Str/ort mice [3]; 2015 Feb. 18): 7
effect on all gait descriptors (Str/ort mice [3]; any time point, compared with vehicle group): no significant effect
effect on cortical bone (overall) (Str/ort mice [4]): significantly alter
